Source: publication PMC11274987, “Synthesis of Chiral Acyclic Pyrimidine Nucleoside Analogues from DHAP-Dependent Aldolases” (Biomolecules, 2024)

Tests used:
[1] = biological target: T1, TmRhu-1PA (Thermotoga maritima, UniProt Q9X0G1); experiment: aldol addition, HPLC and NMR of products; type: biochemical; conditions: acceptor; co-substrate DHAP; 20 mM phosphate pH 6.8, 45 °C
T1 construct: gene TM_1072; recombinant, cloned, expressed and purified as in earlier work (heat step at 80 °C, cobalt salts present)
T1 sequence (Q9X0G1 1-236): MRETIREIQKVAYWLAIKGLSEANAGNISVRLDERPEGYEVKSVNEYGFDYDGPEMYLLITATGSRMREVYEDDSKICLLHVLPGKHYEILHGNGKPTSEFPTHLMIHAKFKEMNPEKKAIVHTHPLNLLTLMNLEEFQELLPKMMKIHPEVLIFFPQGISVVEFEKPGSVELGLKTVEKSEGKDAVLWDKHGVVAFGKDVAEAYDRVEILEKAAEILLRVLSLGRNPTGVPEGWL

[2] = biological target: T2, RAMA (Oryctolagus cuniculus, UniProt P00883); experiment: aldol addition, HPLC and NMR of products; type: biochemical; conditions: acceptor; co-substrate DHAP; 20 mM phosphate pH 6.8, 30 °C
T2 construct: gene ALDOA; commercial native enzyme from rabbit muscle (Sigma-Aldrich)
T2 sequence (P00883 2-364): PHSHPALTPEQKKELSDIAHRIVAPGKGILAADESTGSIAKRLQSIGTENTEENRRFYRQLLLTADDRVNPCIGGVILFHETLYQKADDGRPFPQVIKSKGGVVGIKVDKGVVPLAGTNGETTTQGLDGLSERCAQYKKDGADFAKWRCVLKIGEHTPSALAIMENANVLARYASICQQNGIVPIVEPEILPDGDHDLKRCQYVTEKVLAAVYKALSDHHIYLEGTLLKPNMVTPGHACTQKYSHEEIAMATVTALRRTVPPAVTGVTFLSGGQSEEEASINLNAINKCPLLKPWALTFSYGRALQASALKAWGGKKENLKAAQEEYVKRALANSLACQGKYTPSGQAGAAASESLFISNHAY

| SMILES | aldol addition, HPLC and NMR of products [1] | aldol addition, HPLC and NMR of products [2] |
| --- | --- | --- |
| Cc1cn(CC=O)c(=O)[nH]c1=O [1a, thyminyl acetaldehyde] | biotransformation with the thymine derivative (1a) and TmRhu-1PA as a biocatalyst | – |
| Nc1ccn(CC=O)c(=O)n1 [1b, cytosyl acetaldehyde] | – | A similar reaction profile was observed when the cytosine derivative |
